This passage reports relative viability results from the supplement of paper PMC10307832.

Compound in one test: c1ccc2c(CCNc3ccc(Nc4ccncc4)cc3)c[nH]c2c1 [Serdemetan]
As to the kind of experiment: relative viability (nuclei count vs DMSO), 5 days (fraction); higher = more cells survive. In a few lines:
(§1)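 Only plates meeting two conditions passed: control CV below 25% and at least one doubling. Lung cancer cell lines, kept overnight at 37 °C in 1536-well plates, were pinned with five library-drug doses (not always all listed) √10 apart on vehicle-anchored plates and grown 5 days without medium change. A one-step fix, permeabilisation and Hoechst stain preceded 4× imaging and MetaXpress nuclear counting. Viability equals treated-well nuclei divided by vehicle-well nuclei, as the median over plates.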

Compound in another test: C1CC(C2=C(C1)C3=C(N2)C=CC(=C3)Cl)C(=O)N [Selisistat]
The description is as above. In a few lines:
as §1

Turning to HCC-44, the relative viability with Serdemetan (0.04 µM) worked out at 0.935; in the test with Serdemetan (0.1265 µM), 0.982; with Serdemetan (0.4 µM) it was 0.944; with Serdemetan (1.265 µM), 0.854; in the test with Serdemetan (4 µM) it was 0.962; in the test with Selisistat (0.4 µM) it was 1.01. Also, the relative viability with Selisistat (1.265 µM) was 0.738; in the test with Selisistat (4 µM), 1.08; with Selisistat (12.65 µM) it was 0.982; with Selisistat (40 µM), 1.06.

Take HCC-78: the relative viability was found to be 0.998 in the test with Serdemetan (0.04 µM); 0.752 with Serdemetan (0.1265 µM); 0.842 in the test with Serdemetan (0.4 µM); 0.828 with Serdemetan (1.265 µM); 0.648 in the test with Serdemetan (4 µM); 0.954 with Selisistat (0.4 µM). Moreover, the relative viability in the test with Selisistat (1.265 µM) is 1.08; in the test with Selisistat (4 µM) it was 0.7; with Selisistat (12.65 µM) it was 0.875; with Selisistat (40 µM) it was 0.939.

In the case of HCC-366, the relative viability with Serdemetan (0.04 µM) turned out to be 1; with Serdemetan (0.1265 µM), 0.989; in the test with Serdemetan (0.4 µM), 0.978; with Serdemetan (1.265 µM), 0.121; in the test with Serdemetan (4 µM), 0.101; in the test with Selisistat (0.4 µM), 0.997. Besides, the relative viability is 0.957 with Selisistat (1.265 µM), 0.894 with Selisistat (4 µM), 1.01 in the test with Selisistat (12.65 µM) and 1 with Selisistat (40 µM).

With HCC-827, the relative viability amounted to 1.04 with Serdemetan (0.04 µM); 0.972 with Serdemetan (0.1265 µM); 0.862 with Serdemetan (1.265 µM); 0.83 with Serdemetan (4 µM); 1.02 with Selisistat (0.4 µM); 1.04 in the test with Selisistat (1.265 µM). In addition, the relative viability with Selisistat (4 µM) came out at 0.952; in the test with Selisistat (12.65 µM) it was 0.975; in the test with Selisistat (40 µM), 1.

As to HOP-62, the relative viability worked out at 1.03 with Serdemetan (0.04 µM); 0.999 with Serdemetan (0.1265 µM); 1.01 with Serdemetan (0.4 µM); 0.873 in the test with Serdemetan (1.265 µM); 0.907 with Serdemetan (4 µM); 0.997 with Selisistat (0.4 µM). In addition, the relative viability was 0.987 in the test with Selisistat (1.265 µM), 0.861 in the test with Selisistat (4 µM), 0.928 with Selisistat (12.65 µM) and 1.07 with Selisistat (40 µM).

For the cell line IA-LM, the relative viability in the test with Serdemetan (0.04 µM) came to 0.942; in the test with Serdemetan (0.1265 µM), 0.963; with Serdemetan (0.4 µM) it was 0.956; with Serdemetan (1.265 µM), 0.711; with Serdemetan (4 µM), 0.505; with Selisistat (0.4 µM), 0.945. Besides, the relative viability amounted to 0.959 in the test with Selisistat (1.265 µM), 0.918 in the test with Selisistat (4 µM), 0.9 in the test with Selisistat (12.65 µM) and 1.01 with Selisistat (40 µM).

Turning to LC-2-ad, the relative viability with Serdemetan (0.04 µM) is 1; with Serdemetan (0.1265 µM) it was 0.962; with Serdemetan (0.4 µM), 0.911; with Serdemetan (1.265 µM), 0.962; in the test with Serdemetan (4 µM), 0.872; with Selisistat (0.4 µM) it was 1.05. Besides, the relative viability with Selisistat (1.265 µM) was 0.762; in the test with Selisistat (4 µM) it was 0.794; with Selisistat (12.65 µM), 0.926; with Selisistat (40 µM) it was 1.01.

As for LCLC-97TM1, the relative viability was determined as 1.08 with Serdemetan (0.04 µM); 0.975 in the test with Serdemetan (0.1265 µM); 0.925 with Serdemetan (0.4 µM); 0.802 with Serdemetan (1.265 µM); 0.894 with Serdemetan (4 µM); 0.941 with Selisistat (0.4 µM). Moreover, the relative viability in the test with Selisistat (1.265 µM) was 0.933; with Selisistat (12.65 µM), 0.962; in the test with Selisistat (40 µM), 1.09.
